Holding throughout (format): biochemical
For one assay, the target named is T1, BTK-WT (Homo sapiens, UniProt Q06187).
T1 construct: purified from insect cells as a full-length construct containing an N-terminal 6X-His tag; His6 (N); made in house; host or cells: insect cells (baculovirus Sf21 in Method B)
In words: Btk in vitro inhibitory activity (one of Method A TR-FRET, Method B electrophoretic mobility shift, Method C radiometric filter binding). Conditions: D-compounds panel data; read-out: IC50 BTK-WT. Background: A gel shift assay detects complexes by their altered migration in electrophoresis.

The target of another assay is T2, JAK3 (Homo sapiens, UniProt P52333).
T2 sequence (P52333 1-1124): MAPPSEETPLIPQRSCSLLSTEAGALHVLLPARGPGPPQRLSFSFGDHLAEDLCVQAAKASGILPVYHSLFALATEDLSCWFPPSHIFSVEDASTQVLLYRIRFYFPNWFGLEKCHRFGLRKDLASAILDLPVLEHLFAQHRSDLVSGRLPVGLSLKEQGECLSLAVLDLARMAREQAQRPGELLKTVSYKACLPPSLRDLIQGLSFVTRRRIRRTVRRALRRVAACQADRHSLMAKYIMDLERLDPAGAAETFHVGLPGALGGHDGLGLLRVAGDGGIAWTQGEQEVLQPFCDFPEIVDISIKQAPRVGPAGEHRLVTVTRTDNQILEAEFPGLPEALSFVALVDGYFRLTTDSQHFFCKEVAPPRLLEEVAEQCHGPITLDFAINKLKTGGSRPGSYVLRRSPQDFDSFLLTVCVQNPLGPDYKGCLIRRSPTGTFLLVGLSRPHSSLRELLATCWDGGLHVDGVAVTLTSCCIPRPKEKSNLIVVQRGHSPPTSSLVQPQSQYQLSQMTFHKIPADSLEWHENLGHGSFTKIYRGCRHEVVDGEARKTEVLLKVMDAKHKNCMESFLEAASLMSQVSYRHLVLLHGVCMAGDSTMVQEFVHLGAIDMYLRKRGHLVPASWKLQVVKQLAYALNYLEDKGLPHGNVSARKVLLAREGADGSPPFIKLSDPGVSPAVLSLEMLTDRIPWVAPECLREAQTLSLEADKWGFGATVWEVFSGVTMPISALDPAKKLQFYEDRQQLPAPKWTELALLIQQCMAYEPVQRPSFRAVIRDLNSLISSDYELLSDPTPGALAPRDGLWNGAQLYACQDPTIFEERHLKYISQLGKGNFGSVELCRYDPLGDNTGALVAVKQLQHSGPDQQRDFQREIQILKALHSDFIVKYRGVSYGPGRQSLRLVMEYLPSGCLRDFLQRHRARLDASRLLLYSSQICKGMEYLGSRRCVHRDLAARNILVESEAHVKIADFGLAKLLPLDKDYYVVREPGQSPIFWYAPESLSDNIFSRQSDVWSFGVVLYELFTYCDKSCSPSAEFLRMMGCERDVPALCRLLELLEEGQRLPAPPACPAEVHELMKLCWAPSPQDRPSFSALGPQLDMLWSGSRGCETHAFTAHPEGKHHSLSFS
Description: Inhibition of a panel of kinases, in vitro HotSpot kinase assay: JAK3. Conditions: D-compounds panel data; 1 μM ATP; read-out: IC50 JAK3.

In another assay the target is EGFR (Homo sapiens, UniProt P00533). Description: Inhibition of a panel of kinases, in vitro HotSpot kinase assay: EGFR. Conditions: D-compounds panel data; 1 μM ATP. The procedure: (§1) The degree of inhibition of a panel of kinases is determined using the in vitro HotSpot kinase assay (purified enzymes, ^33P-ATP, an appropriate substrate and 1 μM ATP).
Sequence of EGFR (P00533 25-1210): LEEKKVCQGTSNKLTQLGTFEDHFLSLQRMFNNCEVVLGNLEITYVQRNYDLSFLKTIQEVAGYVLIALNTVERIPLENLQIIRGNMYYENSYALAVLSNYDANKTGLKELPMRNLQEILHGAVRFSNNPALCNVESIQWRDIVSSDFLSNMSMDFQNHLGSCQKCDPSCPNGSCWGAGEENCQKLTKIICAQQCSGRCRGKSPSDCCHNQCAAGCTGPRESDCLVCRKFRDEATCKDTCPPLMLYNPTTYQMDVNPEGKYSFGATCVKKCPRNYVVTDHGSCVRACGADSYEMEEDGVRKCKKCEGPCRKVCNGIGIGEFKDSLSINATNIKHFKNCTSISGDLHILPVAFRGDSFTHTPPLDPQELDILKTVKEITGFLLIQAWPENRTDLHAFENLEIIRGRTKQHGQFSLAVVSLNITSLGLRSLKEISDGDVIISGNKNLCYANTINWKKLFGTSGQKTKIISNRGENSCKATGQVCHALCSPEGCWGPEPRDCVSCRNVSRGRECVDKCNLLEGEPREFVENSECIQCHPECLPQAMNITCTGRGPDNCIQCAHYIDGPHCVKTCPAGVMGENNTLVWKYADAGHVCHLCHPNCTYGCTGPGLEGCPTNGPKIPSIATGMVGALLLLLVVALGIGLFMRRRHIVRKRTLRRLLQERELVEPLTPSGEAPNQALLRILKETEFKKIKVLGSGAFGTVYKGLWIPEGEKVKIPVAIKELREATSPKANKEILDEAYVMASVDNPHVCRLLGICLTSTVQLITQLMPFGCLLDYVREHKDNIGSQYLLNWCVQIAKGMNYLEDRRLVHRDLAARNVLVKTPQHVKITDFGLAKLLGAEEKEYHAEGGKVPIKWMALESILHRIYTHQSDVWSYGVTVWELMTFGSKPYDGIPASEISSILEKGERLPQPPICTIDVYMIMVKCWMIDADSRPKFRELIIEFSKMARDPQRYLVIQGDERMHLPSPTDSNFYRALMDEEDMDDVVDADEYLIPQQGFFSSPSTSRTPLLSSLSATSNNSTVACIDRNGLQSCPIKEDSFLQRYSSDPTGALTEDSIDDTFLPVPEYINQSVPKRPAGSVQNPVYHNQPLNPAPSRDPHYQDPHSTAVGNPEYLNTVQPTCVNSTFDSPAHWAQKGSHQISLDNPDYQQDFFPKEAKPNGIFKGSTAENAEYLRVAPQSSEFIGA
The target in a further assay is SRC (Homo sapiens, UniProt P12931). In words: Inhibition of a panel of kinases, in vitro HotSpot kinase assay: SRC. Conditions: D-compounds panel data; 1 μM ATP. The procedure:
as §1

This is an account of results in patent US20210070748A1, “INHIBITORS OF BRUTONS TYROSINE KINASE” (Pharmacyclics LLC, priority 2015, published 2021).

T1 sequence (Q06187 whole entry): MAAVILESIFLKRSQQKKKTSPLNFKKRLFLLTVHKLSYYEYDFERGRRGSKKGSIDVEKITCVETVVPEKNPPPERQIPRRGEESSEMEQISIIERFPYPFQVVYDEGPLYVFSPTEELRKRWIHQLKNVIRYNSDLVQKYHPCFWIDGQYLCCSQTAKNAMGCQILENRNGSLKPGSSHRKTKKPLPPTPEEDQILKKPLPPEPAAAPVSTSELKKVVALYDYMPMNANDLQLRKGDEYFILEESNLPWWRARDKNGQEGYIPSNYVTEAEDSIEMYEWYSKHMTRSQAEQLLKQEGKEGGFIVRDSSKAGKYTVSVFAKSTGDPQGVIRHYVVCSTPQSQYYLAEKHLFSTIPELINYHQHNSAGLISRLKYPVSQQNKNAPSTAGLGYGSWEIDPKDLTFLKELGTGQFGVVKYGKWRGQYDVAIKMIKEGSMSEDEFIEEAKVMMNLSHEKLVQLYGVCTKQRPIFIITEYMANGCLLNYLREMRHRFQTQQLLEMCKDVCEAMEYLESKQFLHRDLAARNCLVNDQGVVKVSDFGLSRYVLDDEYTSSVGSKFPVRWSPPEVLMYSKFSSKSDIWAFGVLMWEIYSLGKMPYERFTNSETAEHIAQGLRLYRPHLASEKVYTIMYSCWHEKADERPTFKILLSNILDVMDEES
Sequence of SRC (P12931 whole entry): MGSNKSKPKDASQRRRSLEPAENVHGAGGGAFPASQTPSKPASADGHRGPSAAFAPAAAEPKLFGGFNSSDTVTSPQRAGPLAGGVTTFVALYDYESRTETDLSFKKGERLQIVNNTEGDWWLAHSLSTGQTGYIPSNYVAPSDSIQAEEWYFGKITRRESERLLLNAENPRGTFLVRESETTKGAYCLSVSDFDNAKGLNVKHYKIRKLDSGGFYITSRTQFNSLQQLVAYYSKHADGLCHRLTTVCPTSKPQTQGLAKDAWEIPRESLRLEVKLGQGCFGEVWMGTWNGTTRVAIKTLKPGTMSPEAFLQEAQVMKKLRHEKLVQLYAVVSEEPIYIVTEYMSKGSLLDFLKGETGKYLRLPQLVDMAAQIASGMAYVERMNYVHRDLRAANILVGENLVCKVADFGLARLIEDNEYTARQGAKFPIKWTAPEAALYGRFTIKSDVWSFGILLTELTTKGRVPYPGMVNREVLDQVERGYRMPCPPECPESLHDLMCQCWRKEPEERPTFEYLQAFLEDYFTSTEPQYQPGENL

On to `C[C@@H]1[C@H](NC(=O)c2ccc(C3CC3)cc2F)CCCN1c1cnc(C(N)=O)c(Nc2ccc(N3CCN(C)CC3=O)cc2)n1` [Example D-10, 5-[(2R,3R)-3-(4-cyclopropyl-2-fluorobenzamido)-2-methylpiperidin-1-yl]-3-{[4-(4-methyl-2-oxopiperazin-1-yl)phenyl]amino}pyrazine-2-carboxamide], for which the IC50 (usually the concentration at which inhibition is half-maximal) is no more than 10 nM on BTK-WT, 1000 to 10000 nM on JAK3, 100 to 1000 nM on EGFR and 100 to 1000 nM against SRC.
As for `C[C@@H]1[C@H](NC(=O)c2ccc(C(C)(C)N(C)C)cc2)CCCN1c1cnc(C(N)=O)c(Nc2cnn(C)c2)n1` [Example D-108, 5-[(2R,3R)-3-{4-[2-(dimethylamino)propan-2-yl]benzamido}-2-methylpiperidin-1-yl]-3-[(1-methyl-1H-pyrazol-4-yl)amino]pyrazine-2-carboxamide], the IC50 on BTK-WT was no more than 10 nM; at JAK3, greater than 10000 nM; against EGFR it was 1000 to 10000 nM; against SRC it was 10 to 100 nM.
For the molecule `CN(C)c1ccc2c(=O)n([C@@H]3CCCN(c4cnc(C(N)=O)c(Nc5cnn(C)c5)n4)C3)ccc2c1` [Example D-155, 5-[(3R)-3-[6-(dimethylamino)-1-oxo-1,2-dihydroisoquinolin-2-yl]piperidin-1-yl]-3-[(1-methyl-1H-pyrazol-4-yl)amino]pyrazine-2-carboxamide], the IC50 at BTK-WT is no more than 10 nM; on JAK3 it was 100 to 1000 nM; against EGFR, 1000 to 10000 nM; against SRC, 100 to 1000 nM.
In the case of `NC(=O)c1ncc(N2CCC[C@@H](n3ccc4cc(C5CC5)ccc4c3=O)C2)nc1Nc1ccc2ncccc2c1` [Example D-168, 5-[(3R)-3-(6-cyclopropyl-1-oxo-1,2-dihydroisoquinolin-2-yl)piperidin-1-yl]-3-[(quinolin-6-yl)amino]pyrazine-2-carboxamide], the IC50 on BTK-WT is 100 to 1000 nM; at JAK3, greater than 10000 nM; on EGFR, greater than 10000 nM; against SRC it was greater than 10000 nM.
For the molecule `C[C@@H]1[C@H](NC(=O)c2ccc(C3CC3)cc2)CCCN1c1cnc(C(N)=O)c(Nc2ccc(OC3CCN(CC(F)(F)F)CC3)cc2)n1` [Example D-98, 5-[(2R,3R)-3-(4-cyclopropylbenzamido)-2-methylpiperidin-1-yl]-3-[(4-{[1-(2,2,2-trifluoroethyl)piperidin-4-yl]oxy}phenyl)amino]pyrazine-2-carboxamide], the IC50 at BTK-WT was no more than 10 nM; at JAK3 it was 1000 to 10000 nM; against EGFR it was greater than 10000 nM; against SRC it was greater than 10000 nM.
With `C[C@@H]1[C@H](NC(=O)N(C)C)CCCN1c1cnc(C(N)=O)c(Nc2ccc3cccnc3c2)n1` [Example D-121, 5-[(2R,3R)-3-[(dimethylcarbamoyl)amino]-2-methylpiperidin-1-yl]-3-[(quinolin-7-yl)amino]pyrazine-2-carboxamide], the IC50 at BTK-WT was 10 to 100 nM; at JAK3, 1000 to 10000 nM; against EGFR it was 1000 to 10000 nM; at SRC it was 100 to 1000 nM.
Regarding `Cc1cc(Nc2nc(N3CCC[C@@H](NC(=O)c4ccc(C(C)(C)O)cc4)C3)cnc2C(N)=O)sn1` [Example D-158, 5-[(3R)-3-[4-(2-hydroxypropan-2-yl)benzamido]piperidin-1-yl]-3-[(3-methyl-1,2-thiazol-5-yl)amino]pyrazine-2-carboxamide], the IC50 is no more than 10 nM at BTK-WT, 1000 to 10000 nM on JAK3, 1000 to 10000 nM against EGFR and 100 to 1000 nM against SRC.
As to `CN1CCC(n2cc(Nc3nc(N4CCC[C@@H](n5ccc6cc(C7CC7)ccc6c5=O)C4)cnc3C(N)=O)cn2)CC1` [Example D-141, 5-[(3R)-3-(6-cyclopropyl-1-oxo-1,2-dihydroisoquinolin-2-yl)piperidin-1-yl]-3-{[1-(1-methylpiperidin-4-yl)-1H-pyrazol-4-yl]amino}pyrazine-2-carboxamide], the IC50 on BTK-WT is no more than 10 nM; at JAK3, 1000 to 10000 nM; at EGFR it was 1000 to 10000 nM; on SRC, 100 to 1000 nM.
Consider `C[C@@H]1[C@H](NC(=O)N(C)C)CCCN1c1cnc(C(N)=O)c(Nc2ccc(OC3CCN(C4CCCC4)CC3)cc2)n1` [Example D-102, 3-({4-[(1-cyclopentylpiperidin-4-yl)oxy]phenyl}amino)-5-[(2R,3R)-3-[(dimethylcarbamoyl)amino]-2-methylpiperidin-1-yl]pyrazine-2-carboxamide], for which the IC50 on BTK-WT was no more than 10 nM; on JAK3 it was 100 to 1000 nM; on EGFR, 100 to 1000 nM; at SRC it was 10 to 100 nM.
Consider `C[C@@H]1[C@H](NC(=O)c2ccc(C3CC3)cc2)CCCN1c1cnc(C(N)=O)c(Nc2ccc(N3CCN(CC(F)(F)F)CC3)cc2)n1` [Example D-97, 5-[(2R,3R)-3-(4-cyclopropylbenzamido)-2-methylpiperidin-1-yl]-3-({4-[4-(2,2,2-trifluoroethyl)piperazin-1-yl]phenyl}amino)pyrazine-2-carboxamide], for which the IC50 is 10 to 100 nM at BTK-WT, 1000 to 10000 nM on JAK3, greater than 10000 nM on EGFR and 100 to 1000 nM against SRC.
Taken in the same sequence, the figures for `C[C@@H]1[C@H](NC(=O)c2ccc(C3CC3)cc2)CCCN1c1cnc(C(N)=O)c(Nc2ccc(N3CCC4(CC3)COC4)cc2)n1` [Example D-99, 5-[(2R,3R)-3-(4-cyclopropylbenzamido)-2-methylpiperidin-1-yl]-3-[(4-{2-oxa-7-azaspiro[3.5]nonan-7-yl}phenyl)amino]pyrazine-2-carboxamide] were no more than 10 nM, 100 to 1000 nM, 1000 to 10000 nM and 100 to 1000 nM.
On to `C[C@@H]1[C@H](n2ccc3cc(C4CC4)ccc3c2=O)CCCN1c1cnc(C(N)=O)c(Nc2ccc(N3CCN(C)CC3)cc2)n1` [Example D-6, 5-[(2R,3R)-3-(6-cyclopropyl-1-oxo-1,2-dihydroisoquinolin-2-yl)-2-methylpiperidin-1-yl]-3-{[4-(4-methylpiperazin-1-yl)phenyl]amino}pyrazine-2-carboxamide], for which the IC50 on BTK-WT is no more than 10 nM; on JAK3, 1000 to 10000 nM; at EGFR, 100 to 1000 nM; against SRC it was 10 to 100 nM.
Taken in the same sequence, the figures for `C[C@@H]1[C@H](NC(=O)Nc2cccnc2)CCCN1c1cnc(C(N)=O)c(Nc2ccc(C3(C)CCN(C4CCCC4)CC3)cc2)n1` [Example D-9, 3-{[4-(1-cyclopentyl-4-methylpiperidin-4-yl)phenyl]amino}-5-[(2R,3R)-2-methyl-3-{[(pyridin-3-yl)carbamoyl]amino}piperidin-1-yl]pyrazine-2-carboxamide] were no more than 10 nM, 100 to 1000 nM, 10 to 100 nM and no more than 10 nM.
Taken in the same sequence, the figures for `CC(C)N1CCN(c2ccc(Nc3nc(N4CCC[C@@H](NC(=O)c5ccc(C6CC6)cc5F)[C@H]4C)cnc3C(N)=O)cc2)CC1` [Example D-7, 5-[(2R,3R)-3-(4-cyclopropyl-2-fluorobenzamido)-2-methylpiperidin-1-yl]-3-({4-[4-(propan-2-yl)piperazin-1-yl]phenyl}amino)pyrazine-2-carboxamide] were no more than 10 nM, 1000 to 10000 nM, 100 to 1000 nM and 10 to 100 nM.
On the same counts, the results for `C[C@@H]1[C@H](NC(=O)c2ccc(C3CC3)cc2)CCCN1c1cnc(C(N)=O)c(Nc2ccc(N3CCC(F)(F)CC3)cc2)n1` [Example D-96, 5-[(2R,3R)-3-(4-cyclopropylbenzamido)-2-methylpiperidin-1-yl]-3-{[4-(4,4-difluoropiperidin-1-yl)phenyl]amino}pyrazine-2-carboxamide] are 10 to 100 nM, 1000 to 10000 nM, greater than 10000 nM and greater than 10000 nM.
